Literature values in publication PMC10046020, “In Silico Screening and Optimization of Cell-Penetrating Peptides Using Deep Learning Methods” (Biomolecules, 2023).
Where two headings read alike, the source gives them in different places.

Settings: cited from earlier work; for class (CPP / Non-CPP), Train Set: Spreadsheet S2: peptides collected from CellPPD
From the text: Supplement biomolecules-13-00522-s001.zip/biomolecules-2162660_Supplementary Spreadsheets S1 Test Set.csv, table | column: class || Supplement biomolecules-13-00522-s001.zip/biomolecules-2162660_Supplementary Spreadsheets S2 Train Set.csv, table | column: class

[1] = Spreadsheet S1: 150 CPP and 150 non-CPP peptides collected from CellPPD, MLCPP, CPPsite 2.0, Lifetein and other publications
[2] = MLCPP, CPPsite 2.0, Lifetein and other publications

Substance | class (CPP / Non-CPP), Test Set [1] | other results
TRTSRGWHTTDLKYN | Non-CPP | 
LSNTLAELYVREHLR | Non-CPP | 
RGGRLCYCRRRFCVCVGR | CPP | 
RLHRRLHRRLHRLHRRLHRLHRRLHRRLH | CPP | 
EMCILIDENDNKIGADTKKNCHLNENIDKGLLHRA | Non-CPP | 
ARRRRCSGSGSGCGSGSGSCGRRRR | CPP | 
LIRLWSHLIHIWFQNRRLKWKKKC | CPP | 
KNNLKECGLY |  | class (CPP / Non-CPP), Test Set: CPP
FITKALGISYGRKKRRQS | Non-CPP | 
QNLGNQWAVGHLM |  | class (CPP / Non-CPP), Test Set: Non-CPP
CYFQNCPRG |  | class (CPP / Non-CPP), Test Set: Non-CPP
AHALCLTERQIKSNRRMKWKKEN | Non-CPP | 
ARRCSGSGSGCGSGSGSCGRR | CPP | 
KLALKALKAALKPA | Non-CPP | 
VTQADVGSALANLKIPGVGS | Non-CPP | 
NTCTWLKY |  | class (CPP / Non-CPP), Test Set: CPP
LKKLAELAHKLLKLG | CPP | 
TTPFTIRGPLGNQGRGNPVR | Non-CPP | 
KLAKLAKKLAKLAKGGRRRRRRR | CPP | 
HAQKQLSKTSWDFIEGEADDGITYSENIAAFKRIRLR | Non-CPP | 
TAQVFFNVYKKAKPN | Non-CPP | 
GRKKHRQPPQC | Non-CPP | 
LKKLLKLLKKLLKLAG | CPP | 
RRLTLRQLLGLGSRRRRRSR | CPP | 
FLPFLAKILTGVL |  | class (CPP / Non-CPP), Test Set: Non-CPP

Substance | class (CPP / Non-CPP), Test Set [1] | other results
PVVHLTLRQEGDDFSR | Non-CPP | 
LVVLGKLYGRKKRRQRRR | CPP | 
IYLATALAKWALKQGFGGRRRRRRR |  | class (CPP / Non-CPP), Train Set [2]: CPP
FLAGLIGGLAKML | Non-CPP | 
PPPPPPPPPPPLRR | CPP | 
RLLRLLRLL |  | class (CPP / Non-CPP), Test Set: CPP
CARSKNKDC |  | class (CPP / Non-CPP), Test Set: CPP
MIRIAALNASSTIEDDHEGSFKSHKIQTKEAQEAE | Non-CPP | 
AGYLLGKTNLKALAALAKKIL | CPP | 
ENGPDQWSKLYP |  | class (CPP / Non-CPP), Test Set: Non-CPP
INWLKLGKAIIDAL | Non-CPP | 
HGWEIHGLLHRA |  | class (CPP / Non-CPP), Test Set: CPP
GAPRLVLLFSGKRKSGKDFVTEA | Non-CPP | 
RHVYHVLLSQ |  | class (CPP / Non-CPP), Test Set: CPP
SYNTF |  | class (CPP / Non-CPP), Test Set: Non-CPP
FLPLLAGVVANFLPQIICKIARKC | Non-CPP | 
YSSQHLCGSNLVEALYMTCGRSGFYRPHD | Non-CPP | 
ILRRRIRKQAHFHSK | Non-CPP | 
RKKNPNCRR |  | class (CPP / Non-CPP), Test Set: CPP
GWTLNSAGYLLEPHAI | Non-CPP | 
MIEMAM |  | class (CPP / Non-CPP), Test Set: Non-CPP
KKLSECLKRIGVELDS | Non-CPP | 
DWLKAFYDKVAEKLKEAF | CPP | 
CVCVKTTSLVRPRHI | Non-CPP | 
MEPLWWANYDNTQ |  | class (CPP / Non-CPP), Test Set: Non-CPP

Substance | class (CPP / Non-CPP), Test Set [1] | other results
GRKKRRQ | CPP | 
GCCSHPACNVNNPHICG | Non-CPP | 
GRGDGPRRKKKKGPRRKKKKGPRR | CPP | 
GLKKLAELAHKLLKLGC | CPP | 
SRISNRLSSSATRT | Non-CPP | 
IAARIFLRSRQHIKLRHL | Non-CPP | 
QSGAKPGHCEWQSTHLKNCEKVNDIRQPPHHQRS | Non-CPP | 
RRRRRRWWW |  | class (CPP / Non-CPP), Test Set: CPP
TRQARRNRRRWRERQR | CPP | 
CPLDQFECGGDEPG | Non-CPP | 
FDPYALSEHDEERPQNVQSKSRTAELQAEIDDTVGI | Non-CPP | 
RLRLRLRLRLRLRLRLKLLKLLKLLKLLKKKKKKKGYK | CPP | 
DFDMLRCMLGRVYYPCWQV | Non-CPP | 
GWTLNSAGYLNGKFLPLILRKIVTAL | Non-CPP | 
GHHSLKITDDPFDVPFPINDDHDS | Non-CPP | 
IKRYLIKR |  | class (CPP / Non-CPP), Test Set: Non-CPP
QIFWDSRHPSQH |  | class (CPP / Non-CPP), Test Set: Non-CPP
HDEFERHAEGTFTSDVFSYLEGQAAKEFIAWLVKGR | Non-CPP | 
PVVHLTLRQAGDDFGR | Non-CPP | 
MNASQVAGEEAPQSGHSVKVVLVGDGGCGKTSLMMVF | Non-CPP | 
YGFMELFDDVTAIFSIDHCQEEYYEQMANNVM | Non-CPP | 
KKLALHALHLLALLWLHLAHLALKK | CPP | 
GWTNLSAGYLLGPPPGFSPFS | Non-CPP | 
TFFYGGSRGKRNNFKTEEY | CPP | 
RFTFHFRFEFTFHFE | CPP | 

Substance | class (CPP / Non-CPP), Test Set [1] | other results
NTCTWLKYHS |  | class (CPP / Non-CPP), Test Set: CPP
IPLVVPLC |  | class (CPP / Non-CPP), Test Set: CPP
IYLATALAKWALKQGGRRRRRRR |  | class (CPP / Non-CPP), Train Set [2]: CPP
YGDCLPHLKLCKENKDCCSKKCKRRGTNIEKRCR | CPP | 
QNLGNDWAVGHLM |  | class (CPP / Non-CPP), Test Set: Non-CPP
LLGKGNLKALAALAKKIL | Non-CPP | 
TPTSPSSPGLSPVPPPDKVDGFSRRSLRRARPRR | Non-CPP | 
LELELELELELELELELELE | CPP | 
VATIKSVSFYTRK |  | class (CPP / Non-CPP), Test Set: Non-CPP
FKCRRWQWRMKKLGKRSKNKGFKEQAKSLLKWILD | CPP | 
CREKAKKLFKKILKKL | CPP | 
RRRRRRRRGC |  | class (CPP / Non-CPP), Test Set: CPP
KWRRKLKKLRPKKKRKV | CPP | 
RRLLRRLRR |  | class (CPP / Non-CPP), Test Set: CPP
LRKLRKRLLR |  | class (CPP / Non-CPP), Test Set: CPP
REDEDEIEW |  | class (CPP / Non-CPP), Test Set: CPP
IHSHWFVMVLKGKAARQRDDLWTHPCFPS | Non-CPP | 
GMNCSREYAHCTSAYV | Non-CPP | 
TWLKYH |  | class (CPP / Non-CPP), Test Set: CPP
FITKALGISYGRKWRRQC | Non-CPP | 
RHHLRHLRRHLRHLLRHLRHHLRHLRRHLRHLL | CPP | 
LLIILRRPIRKQAHAHSK | CPP | 
CCTGRKKRRQRRR | CPP | 
RFVHNC |  | class (CPP / Non-CPP), Test Set: Non-CPP
KKRTLRKNDRKKRC | CPP | 

Substance | class (CPP / Non-CPP), Test Set [1] | other results
YRDRFAFQPH |  | class (CPP / Non-CPP), Test Set: CPP
QKVAFCDCCYDDIYTVEFKGCIFRPK | Non-CPP | 
LLKTTELLKTTELLKTTS | Non-CPP | 
PDEIGGKFPTAYVQDYLINPE | Non-CPP | 
KLAAKLALKALKAA | Non-CPP | 
WRWRWRWRW |  | class (CPP / Non-CPP), Test Set: CPP
LNSLGYLLGKALAALAKKIL | Non-CPP | 
CLGSGEQCVRDTSCCSMSCTNNICF | Non-CPP | 
LRHHLRHLLRHLRHLLRHLRHHLRHLLRH | CPP | 
LLGDFFRKSKEKIGKEFKRIVQRIKDFLRNLVPRTES | CPP | 
FLGVVFKLASKVFPAVFGKV | Non-CPP | 
EILLPNSYNAYESYKYPGMFIALSK | Non-CPP | 
VKKKKIKREIKIAAQRYGRELRRMADEFHV | CPP | 
MPVMFYFSARNEVALVLVYFNFMIMMMH | Non-CPP | 
HDEFERHAEGEFTSDVSSYLEGQAAKEFIAWLVKGR | Non-CPP | 
NAKTRRHERRRKLAIER | CPP | 
KIWFMNRRMK |  | class (CPP / Non-CPP), Test Set: Non-CPP
GGTSSSDAQQSLQSFWPRVM | Non-CPP | 
EGGGPQWAVGHFM |  | class (CPP / Non-CPP), Test Set: Non-CPP
AVNANFGWQDKRFSTFG | Non-CPP | 
KFFKFFKFFK |  | class (CPP / Non-CPP), Test Set: CPP
GWTNLSAQYLLGPPPGFSPFR | Non-CPP | 
KKKKKKKKK | CPP | 
VIVTERVLLLVAP |  | class (CPP / Non-CPP), Test Set: Non-CPP
ARRRRCSDRFRNCPADEALCGRRRR | CPP | 

Substance | class (CPP / Non-CPP), Test Set [1] | other results
ACSGSGSGCGSGSGSCGRRRRRRRR | CPP | 
PKKGSKKAVTKAQKKDGA | CPP | 
QAHVHVWHKYSVKTVYH | Non-CPP | 
KDCERRFSRSDQLKRHQRRHTGVKPFQK | CPP | 
RQIKIWFQNRRMKWKKC | CPP | 
STGKANKITITNDKGRLSK | CPP | 
FLPLFLPKIICVITKKC | Non-CPP | 
FKCRRWQWRMKKLG | CPP | 
FFLIPKGRRRRRRRRR | CPP | 
QEHDYGNLDLCN |  | class (CPP / Non-CPP), Test Set: Non-CPP
FQAYPCITAYKVMYID | Non-CPP | 
FLPVLAGIAAKVVPALFCKITKKC | Non-CPP | 
KETWWETWWTEWSQPKKRKV | CPP | 
ACRGRGRGCGRGRGRCG | CPP | 
KKLSECLKRIGDELDS | Non-CPP | 
NYQWRCKNQN |  | class (CPP / Non-CPP), Test Set: CPP
VGALAVVVWLWLWLWAGSGPKKKRKVC | CPP | 
RRLRHLRHHYRRRWHRFR | CPP | 
KNLRRIIRKGIHIIKKYF | CPP | 
MDMVAIDDQDYIMCHF | Non-CPP | 
HADGLFTSGYSKLLGQLSARRYLESLI | Non-CPP | 
